Legend:
MCF7 CARM1 KO cells = assay: Quantitative MS of ADMA-containing peptides in MCF7 CARM1 KO cells expressing CARM1 28-608 or CARM1 140-608, and in CARM1 KO; type: cell-based, human
MCF7 cells = assay: Quantitative nanoLC-MS/MS (TMT) of ADMA-containing peptides, CARM1 KO vs parental; type: cell-based, human; set-up: Fold change KO/WT: scale not given here
[1] = CARM1 140-608 versus WT, mean of three replicates (log2)
[2] = KO versus WT, mean of three replicates (log2)
[3] = MCF7, CARM1 KO (KO1-KO3) vs wild type (WT1-WT3)
[4] = CARM1 140-608 vs WT, mean of 3 replicates, log2
[5] = KO vs WT, mean of 3 replicates, log2
[6] = MCF7, CARM1 KO vs WT, three biological replicates each
[7] = log2 scale ratio, mean of n = 3
[8] = ADMA-containing peptide, MCF7, CARM1 knockout (KO1-3) vs wild type (WT1-3), TMT 6-plex experiment #1
[9] = ADMA-containing peptide, CARM1 knockout (KO) vs wild type (WT) MCF7 cells, 6-plex TMT experiment #1, three biological replicates each, sheet "MCF7"
[10] = mean, CARM1 140-608 versus WT (log2 scale)
[11] = mean, CARM1 KO versus WT (log2 scale)
[12] = MCF7 CARM1 knockout vs wild type, 3 biological replicates each, values are on log2 scale
[13] = ratio on log2 scale, mean of 3 replicates
[14] = MCF7, CARM1 knockout vs wild type, n = 3 each
[15] = CARM1 140-608 vs WT, mean of 3 replicates (log2 scale)
[16] = KO vs WT, mean of 3 replicates (log2 scale)
[17] = CARM1 140-608 versus WT, difference of mean log2 values
[18] = CARM1 KO versus WT, difference of mean log2 values
[19] = CARM1 KO vs wild type MCF7 cells, 3 biological replicates each
[20] = difference of log2 means, CARM1 140-608 vs WT
[21] = difference of log2 means, KO vs WT

ATSPrPrAFDGAGSSLGrAPSPrPGPGPLrQQGPPTPFDFLGR
CARM1 140-608/WT (MCF7 CARM1 KO cells; [1]): -2.092 | KO/WT (MCF7 CARM1 KO cells; [2]): -2.635 | Fold change KO/WT (MCF7 cells; [3]): -2.635

STrGGHMNSGGHAK
CARM1 140-608/WT (MCF7 CARM1 KO cells; [4]): 0.5079 | KO/WT (MCF7 CARM1 KO cells; [5]): 0.07617 | Fold change KO/WT (MCF7 cells; [6]): 0.07617

QGQPTPLVIQQPPKPGALIrPPQVTLTQTPMVALrQPHNR
CARM1 140-608/WT (MCF7 CARM1 KO cells; [7]): -1.328 | KO/WT (MCF7 CARM1 KO cells; [7]): -2.284 | Fold change KO/WT (MCF7 cells; [8]): -2.284

ASAPAADPPrYTFAPSVSLNK
CARM1 140-608/WT (MCF7 CARM1 KO cells; [1]): -4.581 | KO/WT (MCF7 CARM1 KO cells; [2]): -6.091 | Fold change KO/WT (MCF7 cells; [9]): -4.884

FEGPQGQLGGGCPLrFEGPPGPVGTPLrFEGPIGQAGGGGFR
CARM1 140-608/WT (MCF7 CARM1 KO cells; [1]): 1.054 | KO/WT (MCF7 CARM1 KO cells; [2]): -2.35 | Fold change KO/WT (MCF7 cells; [9]): -2.35

GSRLPLALPPASQGCSSGGGGGGGGGSSAGGSGNSrPPR
CARM1 140-608/WT (MCF7 CARM1 KO cells; [10]): -0.7656 | KO/WT (MCF7 CARM1 KO cells; [11]): -0.9721 | Fold change KO/WT (MCF7 cells; [12]): -0.9721

EGAEGVNGGEESVNLNDADEGFSSGASLSSQPIGTKPSSSSQrGSLR
CARM1 140-608/WT (MCF7 CARM1 KO cells; [13]): -0.2709 | KO/WT (MCF7 CARM1 KO cells; [13]): -0.04765 | Fold change KO/WT (MCF7 cells; [14]): -0.04765

VGVPPQNPrPSLNSAPSPFNPQGQSQITDPR
CARM1 140-608/WT (MCF7 CARM1 KO cells; [15]): -2.085 | KO/WT (MCF7 CARM1 KO cells; [16]): -2.569 | Fold change KO/WT (MCF7 cells; [3]): -2.569

FLQPrLAPNQPPPPLIrPALAAPR
CARM1 140-608/WT (MCF7 CARM1 KO cells; [15]): 0.3049 | KO/WT (MCF7 CARM1 KO cells; [16]): -2.801 | Fold change KO/WT (MCF7 cells; [3]): -3.157

FEGQHNQLGGNLrFEGPHGQPGVGIrFEGPLVQQGGGMrFEGPSVPGGGLR
CARM1 140-608/WT (MCF7 CARM1 KO cells; [1]): 0.6048 | KO/WT (MCF7 CARM1 KO cells; [2]): -1.668 | Fold change KO/WT (MCF7 cells; [9]): -1.477

APVFPGrGSYSNR
CARM1 140-608/WT (MCF7 CARM1 KO cells; [10]): 0.1704 | KO/WT (MCF7 CARM1 KO cells; [11]): 0.1127 | Fold change KO/WT (MCF7 cells; [12]): -0.1545

VELPTCMYrLPNVHGR
CARM1 140-608/WT (MCF7 CARM1 KO cells; [4]): -1.403 | KO/WT (MCF7 CARM1 KO cells; [5]): -3.7411 | Fold change KO/WT (MCF7 cells; [6]): -2.379

GPrFEGNRPDGPrPrYEGHPAEGTK
CARM1 140-608/WT (MCF7 CARM1 KO cells; [17]): -1.638 | KO/WT (MCF7 CARM1 KO cells; [18]): -2.637 | Fold change KO/WT (MCF7 cells; [19]): -2.637

NVNPVILLNTQTrPYGFGLNHGHTPYSSMLNQGLGVPGIGATQGLrTGFTNIPSrYGTNNR
CARM1 140-608/WT (MCF7 CARM1 KO cells; [15]): -1.7448 | KO/WT (MCF7 CARM1 KO cells; [16]): -2.828 | Fold change KO/WT (MCF7 cells; [3]): -2.828

LQGLQGSGGrGGGLR
CARM1 140-608/WT (MCF7 CARM1 KO cells; [10]): 0.05748 | KO/WT (MCF7 CARM1 KO cells; [11]): -0.4598 | Fold change KO/WT (MCF7 cells; [12]): -0.266

LVPrLSVGAVSSKPTTPTIATPQTVSVPNK
CARM1 140-608/WT (MCF7 CARM1 KO cells; [7]): -1.646 | KO/WT (MCF7 CARM1 KO cells; [7]): -1.953 | Fold change KO/WT (MCF7 cells; [8]): -1.953

QVHPFHVYPQPGMQrFR
CARM1 140-608/WT (MCF7 CARM1 KO cells; [4]): -0.2745 | KO/WT (MCF7 CARM1 KO cells; [5]): -0.1867 | Fold change KO/WT (MCF7 cells; [6]): -0.1867

GQPrTWLQSPV
CARM1 140-608/WT (MCF7 CARM1 KO cells; [15]): -2.79 | KO/WT (MCF7 CARM1 KO cells; [16]): -3.17 | Fold change KO/WT (MCF7 cells; [3]): -3.17

KDLYANTVLSGGSTMYPGIADr
CARM1 140-608/WT (MCF7 CARM1 KO cells; [4]): -0.3764 | KO/WT (MCF7 CARM1 KO cells; [5]): -0.3193 | Fold change KO/WT (MCF7 cells; [6]): -0.3193

VSTSGPrAFSSrSYTSGPGSrISSSSFSR
CARM1 140-608/WT (MCF7 CARM1 KO cells; [20]): -2.338 | KO/WT (MCF7 CARM1 KO cells; [21]): -2.338 | Fold change KO/WT (MCF7 cells; [12]): -2.338

TPASTWASPrPLLNWSR
CARM1 140-608/WT (MCF7 CARM1 KO cells; [15]): -2.026 | KO/WT (MCF7 CARM1 KO cells; [16]): -3.334 | Fold change KO/WT (MCF7 cells; [3]): -3.334

MGTPVPRPPQDMGQIGVrTPLGPrVAAPVGPVGPTPTVLPMGAPVPRPR
CARM1 140-608/WT (MCF7 CARM1 KO cells; [15]): -1.595 | KO/WT (MCF7 CARM1 KO cells; [16]): -3.449 | Fold change KO/WT (MCF7 cells; [3]): -3.424

GPrFEGNrPDGPrPrYEGHPAEGTK
CARM1 140-608/WT (MCF7 CARM1 KO cells; [17]): -4.084 | KO/WT (MCF7 CARM1 KO cells; [18]): -5.484 | Fold change KO/WT (MCF7 cells; [19]): -5.083

QHLLLrGPPPGSANPPrLVSSYrLK
CARM1 140-608/WT (MCF7 CARM1 KO cells; [20]): -1.091 | KO/WT (MCF7 CARM1 KO cells; [21]): -1.563 | Fold change KO/WT (MCF7 cells; [12]): -1.782

LLGQRPGPYDRPIGGrGGYYGAGrGSMYDR
CARM1 140-608/WT (MCF7 CARM1 KO cells; [10]): -0.09536 | KO/WT (MCF7 CARM1 KO cells; [11]): 1.04 | Fold change KO/WT (MCF7 cells; [12]): 0.5689

TPLLGDGPrAPFNQEGQSTGPPPLIPGLGQQGAQGR
CARM1 140-608/WT (MCF7 CARM1 KO cells; [17]): -4.072 | KO/WT (MCF7 CARM1 KO cells; [18]): -5.54 | Fold change KO/WT (MCF7 cells; [19]): -4.991

SSYLESPrGPrFDGPR
CARM1 140-608/WT (MCF7 CARM1 KO cells; [17]): -2.628 | KO/WT (MCF7 CARM1 KO cells; [18]): -4.092 | Fold change KO/WT (MCF7 cells; [19]): -3.147

NPFLTGLSAPSPTNPFGAGEPGrPTLNQMR
CARM1 140-608/WT (MCF7 CARM1 KO cells; [13]): -2.593 | KO/WT (MCF7 CARM1 KO cells; [13]): -3.967 | Fold change KO/WT (MCF7 cells; [14]): -3.967

APPGGLHAPrLSLEGAAR
CARM1 140-608/WT (MCF7 CARM1 KO cells; [4]): -1.8169 | KO/WT (MCF7 CARM1 KO cells; [5]): -2.946 | Fold change KO/WT (MCF7 cells; [6]): -2.121

FDGSPGQMGGGGPLrFEGPQGQLGGGCPLrFEGPPGPVGTPLrFEGPIGQAGGGGFR
CARM1 140-608/WT (MCF7 CARM1 KO cells; [1]): 0.07812 | KO/WT (MCF7 CARM1 KO cells; [2]): -4.068 | Fold change KO/WT (MCF7 cells; [9]): -4.068

GTPGPPPAHGAALQPHPrVNFCPLPSEQCYQAPGGPEDR
CARM1 140-608/WT (MCF7 CARM1 KO cells; [17]): -1.327 | KO/WT (MCF7 CARM1 KO cells; [18]): -0.7925 | Fold change KO/WT (MCF7 cells; [19]): -0.7925

AFSSrSYTSGPGSrISSSSFSR
CARM1 140-608/WT (MCF7 CARM1 KO cells; [20]): -1.259 | KO/WT (MCF7 CARM1 KO cells; [21]): -1.022 | Fold change KO/WT (MCF7 cells; [12]): -1.022
